# Values quoted from earlier work as cited in patent US20240237650A1, “AQUEOUS FUNGICIDE MIXTURE FORMULATION” (ADAMA MAKHTESHIM LTD., priority 2021, published 2024).
# Read-outs that look alike come from different tables or passages of the source.
# Conditions: 20° C.
compound,measurement,setting,value
"CO/C=C(/C(=O)OC)c1ccccc1Oc1cc(Oc2ccccc2C#N)ncn1 [azoxystrobin, methyl (E)-2-{2[6-(2-cyanophenoxy)pyrimidin-4-yloxy]phenyl}-3-methoxyacrylate]",solubility of azoxystrobin in water,pH 5.2 and 7.0,6.7 µg/mL
same,solubility of azoxystrobin in water,pH 9.2,5.9 µg/mL
